Source: publication PMC11929074, “An in vitro platform for the enzymatic characterization of the rhomboid protease RHBDL4” (The Journal of Biological Chemistry, 2025)
*1 amine or outer side, *2 acyl side, *3 side chain or, on linkers, in order; H or OH if unused. Where a SMILES comes first, the peptide text is derived from it. [ ]: non-standard residue; d: D form. The star is where a group is joined. Pheol(OBn) = c1ccc(COC[C@H](Cc2ccccc2)N*)cc1; NH(4-phenylbutyl) = c1ccc(CCCCN*)cc1; X1 = C[C@H](N[*:1])C(=O)C(=O)[*:2]

Experiments:
recombinant human RHBDL4 = target: T1, recombinant human RHBDL4 (Homo sapiens, UniProt Q8TEB9); assay: Inhibition of RHBDL4 proteolysis of IQ6 (FRET-based in vitro assay); type: biochemical; conditions: IQ6 substrate; inhibitor pre-incubated with RHBDL4 for 1 h, then reacted with IQ6 for 2 h; triplicate, average ± S.E.M.
T1 construct: The entire RHBDL4 and RHBDL4-S144A cDNAs were subcloned into the pcDNA3.1 vector; 6xHis (C, cleaved yes); made in house; host or cells: Freestyle 293-F cells (transient transfection, pcDNA3.1-HisA)
T1 sequence (Q8TEB9 1-315): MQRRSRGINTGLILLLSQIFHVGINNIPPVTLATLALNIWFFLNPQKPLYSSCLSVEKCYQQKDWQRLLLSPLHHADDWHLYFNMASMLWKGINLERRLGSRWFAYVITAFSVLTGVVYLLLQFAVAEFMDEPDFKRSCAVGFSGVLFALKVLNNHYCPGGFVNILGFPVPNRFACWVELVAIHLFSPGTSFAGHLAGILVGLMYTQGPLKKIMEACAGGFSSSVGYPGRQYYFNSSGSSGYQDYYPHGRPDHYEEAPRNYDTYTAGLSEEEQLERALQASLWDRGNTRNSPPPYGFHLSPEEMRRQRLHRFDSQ
From the text: (§1) B, schematic representation of the peptidyl-α-ketoamide scaffold with peptide sequence P5-P1 at the nonprime side and hydrophobic substituent (R) at the prime side. C, schematic representation of the peptidyl-α-ketoamide inhibitor, compound 1a/1b. D, representative inhibition curve derived from measuring rates of RHBDL4 proteolysis of the fluorescent substrate IQ6 with increasing concentrations of compound 1a. E, same as (D), except inhibition curve was derived from using increasing concentrations of compound 1b. […] Reactions were quenched with 1 keLaemmli buffer and loaded on 12% SDS-PAGE gel. Post-transfer membranes were visualized using a fluorescence Cy3 filter and by Western blotting using an α-His antibody. For (A, D, and E), all inhibitors were pre-incubated with RHBDL4 for 1 h and allowed to react with the IQ6 substrate for 2 h.
(§2) B, representative inhibition curve derived from measuring rates of RHBDL4 proteolysis of the fluorescent substrate IQ6 with increasing concentrations of compound 3. C, same as (B), except inhibition curve was derived from using increasing concentrations of compound 4. […] Reactions were quenched with 1 RLaemmli buffer and loaded on 12% SDS-PAGE gel. Post-transfer membranes were visualized using a fluorescence Cy3 filter and by Western blotting using an α-His antibody. E, saturation curve of RHBDL4 using fluorescent substrate, KSp207. For (B and C), all inhibitors were pre-incubated with RHBDL4 for 1 h and allowed to react with the IQ6 substrate for 2 h. […] I assigned them to the substrate KSp207, which is named on the x-axis and in the inset table.
The enzymatic assay was performed as previously described (Arutyunova et al., 2014, ([26])). […] The FRET-based cleavage assay was conducted in a fluorescence multiwell plate reader (SynergyMx, BioTek). Upon excitation at 320 nm, the emission intensity at 400 nm was recorded for 2 h at minimal intervals under shaking conditions and plotted using the GraphPad PRISM software. The initial velocities were defined as the slopes of the curve of the generated product as a function of time. The plots of the generated product against the corresponding substrate concentration were fitted with the Michaelis–Menten equation. Catalytic parameters were extrapolated using GraphPad PRISM. […] The samples were desalted using C18 tips (Rainin), eluted in 80% acetonitrile, and dried down in a vacuum centrifuge prior to mass spectrometry analysis.

[1] = system: RHBDL4-GFP in ER-enriched microsomes of HEK293T cells; assay: TAMRA-FP competition label assay in ER-enriched microsomes; type: binding, human; conditions: 100 μM compound, 1 h preincubation at 37 °C, then 500 nM TAMRA-FP 2 h at 37 °C; n = 3
Method: Figure 6 RHBDL4 inhibition studies in ER-enriched microsomes ER-enriched microsomes were preincubated with 100 μM of compounds or DMSO vehicle control followed by the addition of 500 nM of TAMRA-FP serine hydrolase probe. RHBDL4-GFP was immunoprecipitated with an α-GFP antibody and loaded on SDS-PAGE. TAMRA-FP labeling was analyzed via Cy3 filter followed by Western blotting using α-GFP antibody, n = 3.
ER-enriched microsomes were obtained by hypotonic swelling and centrifugation from Hek293T cells 24 h after transfection. To this end, cells from a subconfluent 15-cm plate were resuspended in isolation buffer (10 mM Hepes-KOH pH 7.4, 1.5 mM MgCl2, 10 mM KCl, EDTA-free complete protease inhibitor cocktail from Roche). After 10 min incubation at 4 °C, cells were lysed by passing six times through a 27-gauge needle. Cellular debris and nuclei were discarded after centrifugation at 1000g for 5 min at 4 °C. The supernatant was spun at 100,000g for 30 min at 4 °C. The membrane pellet was resuspended in 40 μl RM buffer (50 mM Hepes-KOH pH 7.4, 250 mM sucrose, 50 mM KOAc, 2 mM Mg(OAc)2). […] TAMRA-FP-labeling was analyzed in the wet gel with a green light source (535 nm) and a Cy3 filter by detecting fluorescence emission using ImageQuant 800 Fluor CCD imager (Cytiva) followed by Western blotting using an α-GFP antibody (Roche).

[2] = system: WT RHBDL4 (recombinant, purified); assay: TAMRA-FP competition labelling on recombinant RHBDL4; type: binding, human; conditions: in-gel Cy3 fluorescence, compared with inactive RHBDL4-S144A control
From the text: as §1, §2

| Compound | IC50 (recombinant human RHBDL4) [nM] | TAMRA-FP labeling of RHBDL4-GFP [1] | competition with TAMRA-FP probe (fluorescent signal) [2] |
| --- | --- | --- | --- |
| CSCC[C@H](NC(=O)[C@H](CCC(N)=O)NC(C)=O)C(=O)N[C@@H](CCC(=O)O)C(=O)N[C@@H](CO)C(=O)N[C@@H](C)C(=O)C(=O)NCCCCc1ccccc1 [compound 3] (Ac-QMES[X1]-{NH(4-phenylbutyl)}) | 54 ± 13 | reduced | reduction in overall fluorescent signal |
| CSCC[C@H](NC(=O)[C@H](CCC(N)=O)NC(C)=O)C(=O)N[C@@H](CCC(=O)O)C(=O)N[C@@H](CO)C(=O)N[C@@H](C)C(=O)C(=O)N[C@H](COCc1ccccc1)Cc1ccccc1 [compound 4] (Ac-QMES[X1]-{Pheol(OBn)}) |  | reduced | reduction in overall fluorescent signal |
